Data on one substance can be found in patent publication US20200147233A1, “METHOD FOR KILLING TUMOR CELLS AND COMPOSITION USED THEREFOR” (PhotoQ3 Inc., priority 2018, published 2020).

One data set has as its system SAS cells. Description: Cytotoxicity of AlPcS2a itself (photosensitizer tolerance). The class given is cell-based. The settings on record: AlPcS2a alone with light. How it is done:
For the purpose of increasing IT-Robo 1 internalization efficiency, the present inventors have used AlPcS2a, which forms reactive oxygen species as a result of light irradiation and induces destruction of endosome. At first, the cytotoxicity of AlPcS2a itself was examined, and the optimal concentration to various cells was then determined.

Data set [1] has as its system HSQ-89 cell line xenograft. Nature of the data set: Antitumor effects of combined use of IT-Robo1 and PCI on HSQ-89 cell line xenograft mice. The class given is in vivo. How it is done: A supernatant was aspirated from a 10 cmφ dish, in which the HSQ-89 cell line was cultured, and was then washed with D-PBS (Dulbecco's phosphate buffer). Thereafter, 1 ml of 2.5 g/l trypsin/1 mM EDTA solution was added to the resultant, and the obtained mixture was then left at rest for several minutes in a CO2 incubator. After confirming that the cells were peeled from the bottom surface of the dish, 9 ml of the culture solution was added, and centrifugation was then performed at 1,000 rpm at 4° C. for 5 minutes. After that, a supernatant was aspirated, 10 ml of PBS was then added thereto, and the obtained mixture was then centrifuged at 1,000 rpm at 4° C. for 5 minutes. Thereafter, a supernatant was aspirated, 10 ml of PBS was added thereto, and the number of cells was then counted. Again, 10 ml of PBS was added to the cells, and the obtained mixture was then centrifuged at 1,000 rpm at 4° C. for 5 minutes. Thereafter, a supernatant was aspirated, and PBS was added thereto to a cell density of 2×10^7 cell/ml. Basement Membrane Matrix Gel (Corning, N.Y.) that had been cooled on ice was added in an equal amount, and 2×10^6 cells/200 μl were then collected using a 23G needle and a 1-ml syringe that had been cooled on ice. Subsequently, the collected cells were subcutaneously administered (SC) to the right shoulder of 6-weel-old male BALB/cSlc-nu/nu mice to produce xenograft mice (cancer-bearing mice). The size of a tumor was calculated according to the following equation:
Tumor size=π/6×Height (mm)×Width (mm)×Depth (mm) […]
With reference to “Guidelines for Proper Conduct of Animal Experiments (2006)” established by Science Council of Japan, a tumor with a size of 1,000 mm^3 or more, or a drastic reduction in body weight (a reduction of 25% or more of body weight for a week) was set at endpoint, and the mice were euthanized by cervical dislocation. The measurement of a tumor size and evaluation of the body weight were carried out over time, and at the endpoint, the size and weight of the tumor and the body weight were evaluated.

For the substance “aluminum phthalocyanine disulfonic acid [AlPcS2a]”, the “sensitivity of cells to photosensitizer treatment” value with SAS cells is given as “weak to the treatment with a photosensitizer”. Also, the “ulcer and crust formation at irradiated site” value in data set [1] (about two days after the irradiation) is on record as “an ulcer was formed at the cancer protrusion site”. The “edema at irradiated site” value in data set [1] (after local irradiation with 650 nm, for several days from the next day, gradually reduced) is “edema was found at the irradiated sites and the surrounding portions thereof”. In data set [1] (mouse, in vivo), the “time until crust fell off after crust formation” value is 10 days.
